# Laboratory results: patent US20230331718A1, “COMPOSITIONS FOR MODULATING SPLICING” (Skyhawk Therapeutics, Inc., priority 2020, published 2023)
# Assays:
# [1] = tested on: SMN2 Splicing D7 (SMN Δ7 transcript); experiment: SMN Quantitative Splicing Assay (qPCR); assay type: cell-based, human; settings: Homo sapiens, Fibroblast, 24 h, SMA patient fibroblasts (GM03813), 2.5 µM to 0.6 nM
# Experimental: Spinal muscular atrophy (SMA) patient fibroblasts (GM03813, Coriell) were plated in 96-well plates at 50,000 cells/well. […] Treated cells were lysed and cDNA synthesized using the Fast Advanced Cells-to-Ct kit (Thermofisher A35378) according to the manufacturer’s instructions. 2 µL of each cDNA were used in qPCR reactions. […] Reactions were run in a Quant Studio 6 qPCR instrument with default settings.
# [2] = tested on: SMN2 Protein; experiment: SMN Protein Assay (MSD); assay type: cell-based, human; settings: SMA patient fibroblasts, 48 hours, 0.6 nM to 2.5 µM
# Experimental: Spinal muscular atrophy (SMA) patient fibroblasts were plated in 96-well plates at 7,000 cells/well. Compounds were added in concentrations ranging from 0.6 nM to 2.5 µM, incubated for 48 hours and the cells were lysed with 100 µL of lysis buffer. 20 µL of lysate was used for SMN protein measurement by Mesoscale Discovery (MSD) assay developed by PharmOptima (Michigan). A standard curve prepared with SMN protein ranging from 1 µg/ml to 19.5pg/ml was used in each MSD plate to calculate the absolute SMN protein amount in each sample.
Structure (SMILES),IC50 [1],EC50 [2]
"Cc1cc(=O)c2cc(-c3ncc(N(C)[C@@H]4C[C@H]5CC[C@H](N5)[C@@H]4F)nn3)c(O)cc2o1 (single isomer, unassigned) [Compound 1A]",16 to 50 nM,16 to 50 nM
"Cc1cc(=O)c2cc(-c3ncc(N(C)[C@H]4C[C@@H]5CC[C@@H](N5)[C@H]4F)nn3)c(O)cc2o1 (single isomer, unassigned) [Compound 1B]",16 to 50 nM,0.01 to 15 nM
"CN(c1cnc(-c2cc3cnn(C)c(=O)c3cc2O)nn1)[C@@H]1CC2CCC(N2)[C@@H]1F (single isomer, unassigned) [Compound 2A]",0.01 to 15 nM,0.01 to 15 nM
"CN(c1cnc(-c2cc3cnn(C)c(=O)c3cc2O)nn1)[C@H]1CC2CCC(N2)[C@H]1F (single isomer, unassigned) [Compound 2B]",0.01 to 15 nM,0.01 to 15 nM
"CN(c1cnc(-c2cc3ncn(C)c(=O)c3cc2O)nn1)[C@@H]1CC2CCC(N2)[C@@H]1F (single isomer, unassigned) [Compound 3A]",16 to 50 nM,16 to 50 nM
"CN(c1cnc(-c2cc3ncn(C)c(=O)c3cc2O)nn1)[C@H]1CC2CCC(N2)[C@H]1F (single isomer, unassigned) [Compound 3B]",0.01 to 15 nM,0.01 to 15 nM
"CN(c1cnc(-c2cc3ccn(C)c(=O)c3cc2O)nn1)[C@@H]1CC2CCC(N2)[C@@H]1F (single isomer, unassigned) [Compound 4A]",16 to 50 nM,16 to 50 nM
"CN(c1cnc(-c2cc3ccn(C)c(=O)c3cc2O)nn1)[C@H]1CC2CCC(N2)[C@H]1F (single isomer, unassigned) [Compound 4B]",0.01 to 15 nM,0.01 to 15 nM
"CN(c1cnc(-c2cc3cnccc3cc2O)nn1)[C@@H]1CC2CCC(N2)[C@@H]1F (single isomer, unassigned) [Compound 5A]",101 to 500 nM,101 to 500 nM
"CN(c1cnc(-c2cc3cnccc3cc2O)nn1)[C@H]1C[C@@H]2CC[C@@H](N2)[C@H]1F (single isomer, unassigned) [Compound 5B]",16 to 50 nM,0.01 to 15 nM
"Cc1cc(=O)c2cc(O)c(-c3ncc(N(C)[C@@H]4C[C@H]5CCC(N5)[C@@H]4F)nn3)cc2o1 (single isomer, unassigned) [Compound 6A]",16 to 50 nM,0.01 to 15 nM
"Cc1cc(=O)c2cc(O)c(-c3ncc(N(C)[C@H]4CC5CC[C@@H](N5)[C@H]4F)nn3)cc2o1 (single isomer, unassigned) [Compound 6B]",0.01 to 15 nM,0.01 to 15 nM
"Cc1ncc2cc(O)c(-c3ncc(N(C)[C@@H]4CC5CCC(N5)[C@@H]4F)nn3)cc2n1 (single isomer, unassigned) [Compound 39]",101 to 500 nM,51 to 100 nM
"Cc1cnc2cc(-c3ncc(N(C)[C@H]4C[C@@H]5CCC(N5)[C@H]4F)nn3)c(O)cc2n1 (single isomer, unassigned) [Compound 54]",16 to 50 nM,101 to 500 nM
"CCc1coc2cc(-c3ncc(N(C)[C@H]4C[C@@H]5CC[C@@H](N5)[C@H]4F)nn3)c(O)cc2c1=O (single isomer, unassigned) [Compound 96]",0.01 to 15 nM,0.01 to 15 nM
CN(c1cnc(-c2cc3ccn(C)c(=O)c3cc2O)nn1)[C@H]1CC2CC[C@@H](N2)[C@H]1F [Compound 7A],0.01 to 15 nM,0.01 to 15 nM
CN(c1cnc(-c2cc3ccn(C)c(=O)c3cc2O)nn1)[C@@H]1C[C@H]2CCC(N2)[C@@H]1F [Compound 7B],16 to 50 nM,0.01 to 15 nM
CNC(=O)c1ccc2cc(-c3ncc(N(C)[C@@H]4C[C@H]5CC[C@@H](C4)N5)nn3)c(O)cc2n1 [Compound 9],–,0.01 to 15 nM
CN(c1cnc(-c2cc3occc(=O)c3cc2O)nn1)C1CC2CCC(N2)C1F (stereo not drawn) [Compound 17],16 to 50 nM,16 to 50 nM
CN(c1cnc(-c2cc3occc(=O)c3cc2O)nn1)[C@H]1C[C@@H]2CCC(N2)[C@H]1F [Compound 18],0.01 to 15 nM,0.01 to 15 nM
CN(c1cnc(-c2cc3nccnc3cc2O)nn1)[C@@H]1CC2CC[C@H](N2)[C@@H]1F [Compound 19],101 to 500 nM,101 to 500 nM
CN(c1cnc(-c2cc3nccnc3cc2O)nn1)C1CC2CCC(N2)C1F (stereo not drawn) [Compound 20],16 to 50 nM,16 to 50 nM
CN(c1cnc(-c2cc3ccncc3cc2O)nn1)C1CC2CCC(N2)C1F (stereo not drawn) [Compound 21],101 to 500 nM,16 to 50 nM
CN(c1cnc(-c2cc3ccncc3cc2O)nn1)C1CC2CCC(N2)[C@H]1F (stereo partly drawn) [Compound 22],16 to 50 nM,0.01 to 15 nM
CN(c1cnc(-c2cc3cccnc3cc2O)nn1)C1CC2CCC(N2)[C@@H]1F (stereo partly drawn) [Compound 23],101 to 500 nM,501 to 10000 nM
CN(c1cnc(-c2cc3cccnc3cc2O)nn1)C1CC2CCC(N2)[C@H]1F (stereo partly drawn) [Compound 24],16 to 50 nM,16 to 50 nM
CN(c1cnc(-c2cc3cncnc3cc2O)nn1)C1CC2CCC(N2)[C@@H]1F (stereo partly drawn) [Compound 25],101 to 500 nM,501 to 10000 nM
CN(c1cnc(-c2cc3cncnc3cc2O)nn1)C1CC2CCC(N2)[C@H]1F (stereo partly drawn) [Compound 26],51 to 100 nM,16 to 50 nM

Structure (SMILES),IC50 [1],EC50 [2]
Cc1coc2cc(-c3ncc(N(C)C4CC5CCC(N5)[C@@H]4F)nn3)c(O)cc2c1=O (stereo partly drawn) [Compound 27],0.01 to 15 nM,0.01 to 15 nM
Cc1coc2cc(-c3ncc(N(C)C4CC5CCC(N5)[C@H]4F)nn3)c(O)cc2c1=O (stereo partly drawn) [Compound 28],0.01 to 15 nM,0.01 to 15 nM
CC(C)n1ncc2cc(-c3ncc(N(C)C4CC5CCC(N5)[C@@H]4F)nn3)c(O)cc2c1=O (stereo partly drawn) [Compound 29],501 to 10000 nM,501 to 10000 nM
CC(C)n1cnc2cc(-c3ncc(N(C)C4CC5CCC(N5)[C@H]4F)nn3)c(O)cc2c1=O (stereo partly drawn) [Compound 30],101 to 500 nM,101 to 500 nM
CCn1cnc2cc(-c3ncc(N(C)C4CC5CCC(N5)[C@@H]4F)nn3)c(O)cc2c1=O (stereo partly drawn) [Compound 31],51 to 100 nM,51 to 100 nM
CCn1cnc2cc(-c3ncc(N(C)C4CC5CCC(N5)[C@H]4F)nn3)c(O)cc2c1=O (stereo partly drawn) [Compound 32],0.01 to 15 nM,0.01 to 15 nM
CCn1ccc2cc(-c3ncc(N(C)C4CC5CCC(N5)[C@@H]4F)nn3)c(O)cc2c1=O (stereo partly drawn) [Compound 33],101 to 500 nM,16 to 50 nM
CCn1ccc2cc(-c3ncc(N(C)C4CC5CCC(N5)[C@H]4F)nn3)c(O)cc2c1=O (stereo partly drawn) [Compound 34],0.01 to 15 nM,0.01 to 15 nM
CN(c1cnc(-c2cc3ncn(C)c(=O)c3cc2O)nn1)C1C[C@@]2(C)CCC(N2)[C@@H]1F (stereo partly drawn) [Compound 35],0.01 to 15 nM,0.01 to 15 nM
CN(c1cnc(-c2cc3ncn(C)c(=O)c3cc2O)nn1)C1C[C@]2(C)CCC(N2)[C@H]1F (stereo partly drawn) [Compound 36],16 to 50 nM,16 to 50 nM
CN(c1cnc(-c2cc3c(F)cn(C)c(=O)c3cc2O)nn1)[C@@H]1C[C@@]2(C)CCC(N2)[C@@H]1F [Compound 37],0.01 to 15 nM,0.01 to 15 nM
CN(c1cnc(-c2cc3c(F)cn(C)c(=O)c3cc2O)nn1)[C@H]1C[C@]2(C)CCC(N2)[C@H]1F [Compound 38],0.01 to 15 nM,0.01 to 15 nM
Cc1ncc2cc(O)c(-c3ncc(N(C)[C@H]4CC5CCC(N5)[C@H]4F)nn3)cc2n1 (stereo partly drawn) [Compound 40],16 to 50 nM,0.01 to 15 nM
Cc1cc2cc(-c3ncc(N(C)[C@@H]4CC5CCC(N5)[C@@H]4F)nn3)c(O)cc2cn1 (stereo partly drawn) [Compound 43],51 to 100 nM,16 to 50 nM
Cc1cc2cc(-c3ncc(N(C)[C@H]4CC5CCC(N5)[C@H]4F)nn3)c(O)cc2cn1 (stereo partly drawn) [Compound 44],0.01 to 15 nM,0.01 to 15 nM
Cc1cc2cc(O)c(-c3ncc(N(C)[C@@H]4CC5CCC(N5)[C@@H]4F)nn3)cc2cn1 (stereo partly drawn) [Compound 45],16 to 50 nM,16 to 50 nM
Cc1cc2cc(O)c(-c3ncc(N(C)[C@H]4CC5CCC(N5)[C@H]4F)nn3)cc2cn1 (stereo partly drawn) [Compound 46],0.01 to 15 nM,0.01 to 15 nM
Cc1cc2cc(-c3ncc(N(C)[C@@H]4CC5CCCC(N5)[C@@H]4F)nn3)c(O)cc2cn1 (stereo partly drawn) [Compound 47],51 to 100 nM,16 to 50 nM
Cc1cc2cc(-c3ncc(N(C)[C@H]4CC5CCCC(N5)[C@H]4F)nn3)c(O)cc2cn1 (stereo partly drawn) [Compound 48],0.01 to 15 nM,0.01 to 15 nM
Cc1cnc2cc(O)c(-c3ncc(N(C)[C@@H]4CC5CCC(N5)[C@@H]4F)nn3)cc2n1 (stereo partly drawn) [Compound 51],51 to 100 nM,51 to 100 nM
Cc1cnc2cc(O)c(-c3ncc(N(C)[C@H]4C[C@@H]5CCC(N5)[C@H]4F)nn3)cc2n1 [Compound 52],16 to 50 nM,0.01 to 15 nM
Cc1cnc2cc(-c3ncc(N(C)[C@@H]4CC5CC[C@H](N5)[C@@H]4F)nn3)c(O)cc2n1 [Compound 53],51 to 100 nM,101 to 500 nM
Cc1nc2cc(O)c(-c3ncc(N(C)[C@@H]4CC5CC[C@H](N5)[C@@H]4F)nn3)cc2nc1C [Compound 55],16 to 50 nM,16 to 50 nM
CN(c1cnc(-c2cc3c(F)cn(C)c(=O)c3cc2O)nn1)[C@H]1CC2COCC(N2)[C@H]1F (stereo partly drawn) [Compound 218],51 to 100 nM,–
CN(c1cnc(-c2cc3c(F)cn(C)c(=O)c3cc2O)nn1)[C@@H]1CC2COCC(N2)[C@@H]1F (stereo partly drawn) [Compound 219],16 to 50 nM,–
CCn1cc(F)c2cc(-c3ncc(N(C)[C@H]4CC5COCC(N5)[C@H]4F)nn3)c(O)cc2c1=O (stereo partly drawn) [Compound 221],501 to 10000 nM,–
CCn1cc(F)c2cc(-c3ncc(N(C)[C@@H]4CC5COCC(N5)[C@@H]4F)nn3)c(O)cc2c1=O (stereo partly drawn) [Compound 222],101 to 500 nM,–
